The supplement of paper PMC10307832

Assays:
Test in all cases: relative viability (nuclei count vs DMSO), 5 days (fraction); higher = more cells survive
Afatinib + Navitoclax = compound: CN(C)C/C=C/C(=O)Nc1cc2c(Nc3ccc(F)c(Cl)c3)ncnc2cc1O[C@H]1CCOC1 [Afatinib] + CC1(C)CCC(c2ccc(Cl)cc2)=C(CN2CCN(c3ccc(C(=O)NS(=O)(=O)c4ccc(N[C@H](CCN5CCOCC5)CSc5ccccc5)c(S(=O)(=O)C(F)(F)F)c4)cc3)CC2)C1 [Navitoclax] (partner 0.5 µM)
Outline: (§1)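 For relative viability, nuclei counts in treated wells were divided by those in vehicle wells. Lung cancer cell lines had been pin-tool dosed in 1536-well plates the day after seeding and cultured for 5 days, then fixed and stained in one step (final 0.05% Triton X-100, 1% formaldehyde, 1 ug/ml Hoechst) and imaged at 4×. Doses were one drug alone or a fixed anchor-drug dose plus five library-drug doses (not always all listed) in √10 steps, and values are duplicate-plate medians.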

Afatinib + Crizotinib = compound: CN(C)C/C=C/C(=O)Nc1cc2c(Nc3ccc(F)c(Cl)c3)ncnc2cc1O[C@H]1CCOC1 [Afatinib] + C[C@@H](Oc1cc(-c2cnn(C3CCNCC3)c2)cnc1N)c1c(Cl)ccc(F)c1Cl [Crizotinib] (partner 1 µM)
Outline: as §1

Afatinib + Tozasertib = compound: CN(C)C/C=C/C(=O)Nc1cc2c(Nc3ccc(F)c(Cl)c3)ncnc2cc1O[C@H]1CCOC1 [Afatinib] + Cc1cc(Nc2cc(N3CCN(C)CC3)nc(Sc3ccc(NC(=O)C4CC4)cc3)n2)n[nH]1 [Tozasertib] (partner 0.1 µM)
Outline: as §1

Afatinib + Vorinostat = compound: CN(C)C/C=C/C(=O)Nc1cc2c(Nc3ccc(F)c(Cl)c3)ncnc2cc1O[C@H]1CCOC1 [Afatinib] + O=C(CCCCCCC(=O)Nc1ccccc1)NO [Vorinostat] (partner 1 µM)
Outline: as §1

Cell Line	relative viability (Afatinib + Navitoclax; first compound 0.005 µM)	relative viability (Afatinib + Navitoclax; first compound 0.01581 µM)	relative viability (Afatinib + Navitoclax; first compound 0.05 µM)	relative viability (Afatinib + Navitoclax; first compound 0.1581 µM)	relative viability (Afatinib + Navitoclax; first compound 0.5 µM)	relative viability (Afatinib + Crizotinib; first compound 0.005 µM)	relative viability (Afatinib + Crizotinib; first compound 0.01581 µM)	relative viability (Afatinib + Crizotinib; first compound 0.05 µM)	relative viability (Afatinib + Crizotinib; first compound 0.1581 µM)	relative viability (Afatinib + Crizotinib; first compound 0.5 µM)	relative viability (Afatinib + Tozasertib; first compound 0.005 µM)	relative viability (Afatinib + Tozasertib; first compound 0.01581 µM)	relative viability (Afatinib + Tozasertib; first compound 0.05 µM)	relative viability (Afatinib + Tozasertib; first compound 0.1581 µM)	relative viability (Afatinib + Tozasertib; first compound 0.5 µM)	relative viability (Afatinib + Vorinostat; first compound 0.005 µM)	relative viability (Afatinib + Vorinostat; first compound 0.01581 µM)	relative viability (Afatinib + Vorinostat; first compound 0.05 µM)	relative viability (Afatinib + Vorinostat; first compound 0.1581 µM)	relative viability (Afatinib + Vorinostat; first compound 0.5 µM)
COR-L 105	0.444	0.373	0.315	0.293	0.26	0.618	0.285	0.304	0.221	0.216	0.333	0.255	0.258	0.165	0.206	0.667	0.386	0.47	0.336	0.386
LK-2	1.02	0.779	0.868	0.883	0.835	0.201		0.195	0.234	0.243	0.161	0.173	0.2	0.182	0.166	0.349	0.269	0.277	0.2	0.382
NCI-H727	0.371	0.349	0.407	0.345	0.353	0.804	0.802	0.53	0.541	0.583	0.597	0.614	0.543	0.514	0.449	1.08	0.953	1	0.906	0.956
RERF-LC-KJ	0.786	0.766	0.874		0.751	0.921	0.842	0.801	0.731	0.705	0.502	0.611	0.575	0.424	0.484	0.713	0.636	0.544	0.574	0.519
NCI-H2023	1.01	1.01	0.876	0.792	0.854	0.576	0.487	0.407	0.402	0.487	0.422	0.377	0.366	0.169	0.248	0.445	0.566	0.592	0.556	0.549
NCI-H322M	1.28	0.864	0.586	0.405	0.371	0.775	0.676	0.544	0.359	0.293	0.386	0.329	0.307	0.304	0.313	0.825	0.506	0.658	0.61	0.567
NCI-H1666	0.887	0.748	0.583		0.389	0.879	0.885	0.661		0.676	0.673	0.621	0.596	0.519	0.551	1	1.03	1.03	0.811	0.712
NCI-H1648											0.734	0.624	0.592	0.241	0.311	0.398	0.421	0.271	0.421	0.26
NCI-H2087	0.996	0.957	1.11	0.837	0.925	0.985	0.933	0.93	0.845	1.02	0.232	0.25	0.267	0.229	0.202	0.658	0.625	0.968	0.91	0.592
LU99A	0.859	0.706	0.797	0.793	0.883	0.591	0.54	0.539	0.55	0.525	0.275	0.273	0.256	0.254	0.231	0.467	0.61	0.487	0.419	0.502
HCC-366	1.14	1.04	1.18	1	1.06	0.746	0.643	0.554	0.428	0.476	0.122	0.143	0.0823	0.0878	0.069	0.329	0.36	0.348	0.36	0.345
EKVX	0.655	0.46	0.349	0.26	0.197	0.892	0.708	0.551	0.268	0.159	0.379	0.423	0.31	0.132	0.169	0.588	0.385	0.284	0.31	0.276
NCI-H522											0.512	0.535	0.521	0.449	0.401	0.865	0.928	0.829	0.7	0.721
NCI-H1755	0.957	0.981	1.08	0.995	0.987	0.894	0.869	0.848	0.852	0.868	0.522	0.499	0.59	0.554	0.566	0.9	0.935	0.789	0.79	0.727
NCI-H647	1.09	0.951	1.16	1.13	1.39	1.26	1.13	1.01	1.04	1.19	0.251	0.263	0.417	0.211	0.276	0.493	0.513	0.595	0.523	0.524
LC-2-ad	0.483	0.458	0.419	0.322	0.32	0.566	0.422	0.409	0.382	0.408	0.507	0.48	0.439	0.483	0.431	0.767	0.717	0.705	0.662	0.78

Cell Line	relative viability (Afatinib + Navitoclax; first compound 0.005 µM)	relative viability (Afatinib + Navitoclax; first compound 0.01581 µM)	relative viability (Afatinib + Navitoclax; first compound 0.05 µM)	relative viability (Afatinib + Navitoclax; first compound 0.1581 µM)	relative viability (Afatinib + Navitoclax; first compound 0.5 µM)	relative viability (Afatinib + Crizotinib; first compound 0.005 µM)	relative viability (Afatinib + Crizotinib; first compound 0.01581 µM)	relative viability (Afatinib + Crizotinib; first compound 0.05 µM)	relative viability (Afatinib + Crizotinib; first compound 0.1581 µM)	relative viability (Afatinib + Crizotinib; first compound 0.5 µM)	relative viability (Afatinib + Tozasertib; first compound 0.005 µM)	relative viability (Afatinib + Tozasertib; first compound 0.01581 µM)	relative viability (Afatinib + Tozasertib; first compound 0.05 µM)	relative viability (Afatinib + Tozasertib; first compound 0.1581 µM)	relative viability (Afatinib + Tozasertib; first compound 0.5 µM)	relative viability (Afatinib + Vorinostat; first compound 0.005 µM)	relative viability (Afatinib + Vorinostat; first compound 0.01581 µM)	relative viability (Afatinib + Vorinostat; first compound 0.05 µM)	relative viability (Afatinib + Vorinostat; first compound 0.1581 µM)	relative viability (Afatinib + Vorinostat; first compound 0.5 µM)
NCI-H1793	0.404	0.348	0.356	0.357	0.32						0.315	0.377	0.252	0.147	0.242	0.733	0.424	0.411	0.401	0.38
HCC-827	0.173	0.168	0.157	0.18	0.147	0.169	0.176	0.184	0.184	0.21	0.0972	0.11	0.112	0.131	0.112	0.166	0.134	0.146	0.151	0.146
HCC-78	0.776	0.76	0.62	0.636	0.679	0.308	0.279	0.245	0.252	0.221	0.474	0.405	0.403	0.312	0.47	0.433	0.404	0.422	0.345	0.376
NCI-H2085	0.985	1.03	0.994	0.808	0.936	0.925	0.657	0.763	0.66	0.778	0.795	0.754	0.721	0.619	0.619	0.746	0.684	0.66	0.623	0.682
NCI-H2342											0.464	0.545	0.472	0.421	0.393	0.706	0.628	0.729	0.695	0.696
ABC-1						1.29	0.98	1.3	0.885	1.13	0.172	0.123	0.177	0.168	0.165	1.47		1.13	1.24	1.08
NCI-H661						1.25	1.03	0.996	0.838	0.773	0.34	0.367	0.367	0.361	0.377	0.867	0.738	0.755	0.64	0.63
NCI-H358						0.541	0.423	0.387	0.241	0.256	0.0992	0.111	0.0922	0.0887	0.076	0.514	0.432	0.375	0.207	0.253
EBC-1	0.507	0.457	0.465	0.396	0.343	0.193	0.174	0.191	0.189	0.209										
NCI-H650						0.856	0.674	0.72	1.01	0.683	0.846	0.735	0.782	0.721	0.683	0.469	0.395	0.551	0.515	0.316
NCI-H1792	0.745	0.537	0.587	0.629	0.625	1.04	1.01	0.977	0.907	0.856										
A549	1.3	1.11	1.2	1.09	1.16	0.995	0.655	0.712	0.695	0.796										
NCI-H1703	1.22	0.95	1.34	0.746	0.641	0.824	0.694	0.581	0.731	0.561										
LCLC-103H						1	1.14	1.03	0.911	1.17	0.425	0.508	0.441	0.516	0.49	0.809	0.817	0.703	0.732	0.704
NCI-H1563						0.844	0.835	0.872	0.795	0.882										
NCI-H1395	1.31	0.999	1.12	1.17	1.2						0.784	0.759	0.712	0.709	0.667	0.857	0.571	0.674	0.711	0.5
